Test results as given in patent publication US20240076615A1, “MODELS AND METHODS FOR RAPID SCREENING OF THE EFFICACY OF IMMUNOREGULATING DRUGS” (priority 2022, published 2024).

System: tumor cells and immune cells of a patient with ovarian cancer
Assay: IO-FIVE capsule tube test in mice, ovarian cancer patient (Example 3), CTG and FACS
Assay type: in vivo, human
Conditions: day 10; tumor sample after addition of autologous TIL cells
Source text: The following was collected for cell identification: a single cell suspension of tumor tissue samples of patients before purification, tumor cells after purification, enriched immune cells (containing CD3+T) eluted from the column, and a cell suspension in which tumor cells after purification and immune cells were mixed in a certain ratio (1.5:1 to 15:1), to yield a final cell count of 0.1 to 0.3 million cells. (Note that if the viability of immune cells eluted from the column was less than 20%, then downstream experiments and operations could not be performed, especially since activated immune cells were more likely to undergo activation-induced apoptosis). […]
According to the data analyzed in step of flow cytometry, the CD45− tumor cells and CD3+ T cells were mixed in a certain ratio (about 1.5:1-15:1). […]
3-21 days after administration (day 10 here), the mice were euthanized, and the PVDF tubes were removed. Cell viability was quantified by the CellTiter-Glo chemiluminescence method, and the relative ratio and basic phenotype of tumor cells and immune cells in PVDF tubes were detected by flow cytometry.
The results were analyzed by Flowjo software.

For NC(=O)c1cccc2cn(-c3ccc([C@@H]4CCCNC4)cc3)nc12 [PARP inhibitor, Niraparib], the “viability of total cells / overall tumor viability (CTG)” value was “neither PD1 antibody nor PARP inhibitor mono-therapy could inhibit”.
